How the values were obtained:
[1] = Rapamycin trough blood concentrations; assay type: in vivo, human
Kaposi sarcoma [2] = test: Clinical response of KS to rapamycin; assay type: in vivo, human
HIV [3] = test: HIV viral load monitoring; assay type: in vivo, human; conditions: during rapamycin treatment with ART
CD4 T-lymphocyte counts = test: CD4+ T-lymphocyte count monitoring; assay type: in vivo, human; conditions: 6 study participants with follow-up tests; median baseline 826
KSHV = KSHV plasma viral load by quantitative real-time PCR; assay type: in vivo, human
interleukin-6 (IL6) = test: Plasma IL6 by ELISA; assay type: in vivo, human; conditions: baseline median 8.22pg/ml
[4] = system: vascular endothelial growth factor (VEGF); test: Plasma VEGF by ELISA; assay type: in vivo, human
phospho-RPS6 (pRPS6) = test: IHC of KS biopsies for phospho-RPS6; assay type: in vivo, human
[5] = system: phospho-Akt (Ser473) and phospho-Akt (T308); test: IHC of KS biopsies for phospho-Akt; assay type: in vivo, human; conditions: KS biopsies on treatment vs baseline
Ki-67 = test: IHC of KS biopsies for Ki-67; assay type: in vivo, human; conditions: KS biopsies on treatment vs baseline
[6] = system: KSHV latency associated nuclear antigen (LANA); test: IHC of KS biopsies for KSHV LANA; assay type: in vivo, human; conditions: KS biopsies on treatment vs baseline
Kaposi sarcoma [7] = conditions: HIV-uninfected renal allograft recipients; trough 6-10ng/ml; cited from earlier work
P-glycoprotein = conditions: cited from earlier work
HIV [8] = conditions: in culture; cited from earlier work
[9] = system: cytochrome P450 3A4 (CYP3A4); conditions: cited from earlier work
[10] = Safety and adverse event monitoring

Structure (SMILES): CO[C@H]1C[C@@H]2CC[C@@H](C)[C@@](O)(O2)C(=O)C(=O)N2CCCC[C@H]2C(=O)O[C@H]([C@H](C)C[C@@H]2CC[C@@H](O)[C@H](OC)C2)CC(=O)[C@H](C)/C=C(\C)[C@@H](O)[C@@H](OC)C(=O)[C@H](C)C[C@H](C)/C=C/C=C/C=C/1C [rapamycin]
- time for blood levels to decline to acceptable levels after stopping rapamycin ([1]; first patient, ritonavir-boosted lopinavir regimen, from 172ng/mL): three
- concentration at 7 days ([1]; human, whole blood, oral, 2 mg): 123 ng/mL
- concentration at 14 days ([1]; human, whole blood, oral, 2 mg): 172 ng/mL
- Maximum Rapamycin Trough Level by LCMSMS ([1]; patient 001, Lopinavir/r ART, initial 2 mg daily): 172 ng/mL
- Maximum Rapamycin Trough Level by LCMSMS ([1]; patient 002, Atazanavir/r ART, initial 0.3 mg biw): 64.4 ng/mL
- Maximum Rapamycin Trough Level by LCMSMS ([1]; patient 003, Atazanavir/r ART, initial 0.3 mg biw): 16.8 ng/mL
- Maximum Rapamycin Trough Level by LCMSMS ([1]; patient 004, Nevirapine ART, initial 4.9 mg daily): 13.1 ng/mL
- Maximum Rapamycin Trough Level by LCMSMS ([1]; patient 005, Lopinavir/r ART, initial 0.4 mg biw): 19.2 ng/mL
- Maximum Rapamycin Trough Level by LCMSMS ([1]; patient 006, Efavirenz ART, initial 4.5 mg daily): 7.4 ng/mL
- Maximum Rapamycin Trough Level by LCMSMS ([1]; patient 007, Efavirenz ART, initial 3.7 mg daily): 11.9 ng/mL
- number of patients with stable disease as best response (Kaposi sarcoma [2]; of seven): Three
- number of patients with partial KS response (Kaposi sarcoma [2]; of seven, all receiving PI/r regimens): Three
- Best Response of KS to Rapamycin (Kaposi sarcoma [2]; patient 001, Lopinavir/r ART, maintenance 0.2 mg biw): Partial
- Best Response of KS to Rapamycin (Kaposi sarcoma [2]; patient 002, Atazanavir/r ART, maintenance 0.2 mg biw): Partial
- Best Response of KS to Rapamycin (Kaposi sarcoma [2]; patient 003, Atazanavir/r ART, maintenance 0.3 mg tiw): Stable
- Best Response of KS to Rapamycin (Kaposi sarcoma [2]; patient 004, Nevirapine ART, maintenance 2.8 mg daily): Progression
- Best Response of KS to Rapamycin (Kaposi sarcoma [2]; patient 005, Lopinavir/r ART, maintenance 0.1 mg biw): Partial
- Best Response of KS to Rapamycin (Kaposi sarcoma [2]; patient 006, Efavirenz ART, maintenance 6.7 mg daily): Stable
- Best Response of KS to Rapamycin (Kaposi sarcoma [2]; patient 007, Efavirenz ART, maintenance 2.3 mg daily): Stable
- response duration (Kaposi sarcoma [2]; three responding patients): 43 to 50 weeks
- time to partial KS response (Kaposi sarcoma [2]; three responding patients): 3 to 9 weeks
- changes in HIV VL (HIV [3]): no consistent changes
- CD4 counts during treatment (CD4 T-lymphocyte counts): > 400 cells/μL
- changes in KSHV VL during rapamycin treatment (KSHV): no significant changes
- median change in KSHV VL during treatment (KSHV; baseline median 214, P=0.156): -138.8 copies/ml
- changes in plasma IL6 concentrations during treatment (interleukin-6 (IL6)): No significant changes
- changes in plasma VEGF concentrations during treatment [4]: No significant changes
- overall changes from baseline in staining scores (pRPS6, phospho-Akt) (phospho-RPS6 (pRPS6); on-treatment KS biopsies, all patients, score 0 to 4): no significant changes
- pRPS6 reactivity within KS tumor cells and overlying epithelium (phospho-RPS6 (pRPS6); subject #5, after 50 days on drug vs baseline): decreased pRPS6 reactivity
- pRPS6 staining compared to baseline (phospho-RPS6 (pRPS6); three of four subjects biopsied at day 50 or later, all on PI/r-based ART): decreased pRPS6 staining
- changes in Akt phosphorylation at T308 or Ser473 [5]: no significant changes
- changes in Ki-67 staining (Ki-67): no significant changes
- changes in LANA staining [6]: no significant changes
- KS outcome after change from cyclosporin A-based regimen to rapamycin (Kaposi sarcoma [7]): KS regressed
- substrate status for P-glycoprotein (P-glycoprotein): substrate
- effect on HIV infectivity and transcription (HIV [8]): inhibits HIV infectivity and transcription in culture
- substrate status for CYP3A4 [9]: substrate
- grade of most adverse events ([10]; all seven patients experienced adverse events): most were grade 1
- serious adverse event ([10]; patient #4, Nevirapine ART): extensive grade 3 superficial vein thrombus requiring anticoagulation, considered possibly related to rapamycin
- infectious adverse events ([10]; patient #5, pneumonia and dermatomal Herpes zoster): 2 separate grade 2 infectious episodes without neutropenia
- infectious adverse events ([10]; patient #6, without neutropenia, resolved without treatment): grade 2 upper respiratory infection
- overall tolerability ([10]; seven HIV-infected KS patients on ART, trough target 5-10 ng/mL): generally well tolerated
